test system: TNF-α production from human whole blood; test: Inhibition of TNF-α production from human whole blood (hWBA), LPS stimulated, ELISA; type: cell-based; settings: Homo sapiens, LPS-stimulated human whole blood, TNF-α by ELISA; read-out: hWBA (IC50)

Row | IC50 [nM] | Structure (SMILES)
1 | 662 | CSc1ccc2c(c1)C(=O)N(C[C@@]1(c3cc4cnccc4o3)NC(=O)NC1=O)C2 [Compound 309]
2 | 998 | COc1ccc2c(c1)C(=O)N(C[C@@]1(c3cc4nc(-c5cccc(O)c5)ccc4o3)NC(=O)NC1=O)C2 [Compound 1902]
3 | 3660 | COc1ccc2c(c1)C(=O)N(C[C@@]1(c3cc4nc(-c5cncc(C#N)c5)ccc4o3)NC(=O)NC1=O)C2 [Compound 1529]
4 | 317 | COc1ccc2c(c1)C(=O)N(C[C@@]1(c3cc4nc(C(=O)NC5CCN(C)CC5)ccc4o3)NC(=O)NC1=O)C2 [Compound 1911]
5 | 6660 | COc1cc2c(cc1OC)C(=O)N(C[C@]1(c3cc4cnccc4o3)NC(=O)NC1=O)C2 [Compound 201]
6 | 1120 | COc1ccc2c(c1F)C(=O)N(C[C@@]1(c3cc4nc(-c5cccnc5)c(F)cc4o3)NC(=O)NC1=O)C2 [Compound 1315]
7 | 1190 | COc1ccc2c(c1)C(=O)N(C[C@@]1(c3cc4nc(-c5c(C)noc5C)ccc4o3)NC(=O)NC1=O)C2 [Compound 1520]
8 | 1770 | COc1ccc2c(c1)C(=O)N(C[C@@]1(c3cc4nc(N(CCO)CCN(C)C)ccc4o3)NC(=O)NC1=O)C2 [Compound 1702]
9 | ≥ 10000 | COc1cc2c(cc1OC)C(=O)N(C[C@@]1(c3cc4cnccc4o3)NC(=O)NC1=O)C2 [Compound 200]

Row | Structure (SMILES) | IC50 [nM]
10 | COc1ccc2c(c1F)C(=O)N(C[C@@]1(c3cc4cc5sc(N)nc5cc4o3)NC(=O)NC1=O)C2 [Compound 1743] | 236
11 | CCCN1CCC(c2nc3cc([C@]4(CN5Cc6ccc(OC)c(F)c6C5=O)NC(=O)NC4=O)oc3cc2F)CC1 [Compound 1324] | 248
12 | Cc1ccc2c(c1)C(=O)N(C[C@@]1(c3cc4ncccc4o3)NC(=O)NC1=O)C2 [Compound 1740] | > 10000

same assay, conditions: Homo sapiens, human whole blood diluted 1:1, LPS stimulated, TNF-α by ELISA; read-out: hWBA (IC50)

Row | IC50 [nM] | Structure (SMILES)
13 | 987 | COc1ccc2c(c1)C(=O)N(C[C@@]1(c3cc4cc(C=O)ccc4o3)NC(=O)NC1=O)C2 [Compound 2451]
14 | 393 | CCN1CCN(C(=NO)c2ccc3oc([C@]4(CN5Cc6ccc(OC)cc6C5=O)NC(=O)NC4=O)cc3c2)CC1 [Compound 2453]
15 | 1990 | CCNC(=O)NCc1ccc2oc([C@]3(CN4Cc5ccc(OC)cc5C4=O)NC(=O)NC3=O)cc2c1 [Compound 2485]
16 | 560 | COc1ccc2c(c1)C(=O)N(C[C@@]1(c3cc4cc(C(=O)N5CCN(C)CC5)c(C)cc4o3)NC(=O)NC1=O)C2 [Compound 2427]
17 | 3660 | COc1ccc2c(c1)C(=O)N(C[C@@]1(c3cc4nc(-c5cncc(C#N)c5)ccc4o3)NC(=O)NC1=O)C2 [Compound 2471]
18 | 2710 | COc1ccc2c(c1)C(=O)N(C[C@@]1(c3ccc(C(=O)N4CCOCC4)cc3)NC(=O)NC1=O)C2 [Compound 2405]
19 | 10000 | COc1ccc2c(c1)C(=O)N(C[C@@]1(c3cc4c(-c5cccc(C#N)c5)nccc4o3)NC(=O)NC1=O)C2 [Compound 2430]
20 | 546 | COc1ccc2c(c1)C(=O)N(C[C@@]1(c3cc4ncc(C(=NO)N5CCN(c6cnccn6)CC5)cc4o3)NC(=O)NC1=O)C2 [Compound 2469]
21 | 321 | COc1ccc2c(c1)C(=O)N(C[C@@]1(c3cc4ncc(C(=O)NC5CC5)cc4o3)NC(=O)NC1=O)C2 [Compound 2460]
22 | 1600 | COc1ccc2c(c1)C(=O)N(C[C@@]1(c3cc4c(C)ncc(C(=O)O)c4o3)NC(=O)NC1=O)C2 [Compound 2446]
23 | 314 | CCN1CCN(c2ccc3oc(C4(CN5CCc6ccsc6C5=O)NC(=O)NC4=O)cc3n2)CC1 (centres unmarked) [Compound 2496]
24 | 3480 | COc1ccc2c(c1)C(=O)N(C[C@@]1(c3ccc(C#N)cc3)NC(=O)NC1=O)C2 [Compound 2477]
25 | 470 | COc1ccc2c(c1)C(=O)N(C[C@@]1(c3cc4cc(C)ncc4o3)NC(=O)NC1=O)C2 [Compound 2302]
26 | 174 | CCOC(=O)c1c(O)nc(C)c2cc([C@]3(CN4Cc5ccc(OC)cc5C4=O)NC(=O)NC3=O)oc12 [Compound 2434]
27 | 321 | COc1ccc2c(c1)C(=O)N(C[C@@]1(c3cc4cc(/C(=N\O)N5CC[C@H](N(C)C)C5)ccc4o3)NC(=O)NC1=O)C2 [Compound 2488]

Row | Structure (SMILES) | IC50 [nM]
28 | COc1ccc2c(c1)C(=O)N(C[C@@]1(c3cc4c(Cl)nc(N)nc4o3)NC(=O)NC1=O)C2 [Compound 2296] | ≥ 10000

biological target: T1, purified catalytic domain of recombinant human TACE (rhTACEc) (Homo sapiens, UniProt P78536, N452Q/S266A); test: TACE kinetic assay: cleavage of internally quenched peptide substrate TNF-FRET 2 (Ki); type: biochemical; settings: Ki, TNF-FRET 2 substrate
T1 construct: 6xHis (C); made in house; host or cells: baculovirus/Hi5 insect cells
T1 sequence (P78536 215-477 S266A/N452Q): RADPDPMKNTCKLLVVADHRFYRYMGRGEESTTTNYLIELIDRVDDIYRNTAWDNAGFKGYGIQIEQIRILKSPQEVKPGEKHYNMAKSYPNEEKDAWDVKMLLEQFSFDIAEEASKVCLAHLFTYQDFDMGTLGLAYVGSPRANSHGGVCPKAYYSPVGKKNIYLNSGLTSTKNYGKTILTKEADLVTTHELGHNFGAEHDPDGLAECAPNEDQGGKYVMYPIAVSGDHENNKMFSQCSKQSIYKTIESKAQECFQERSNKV

Row | Structure (SMILES) | Ki [nM]
29 | COc1ccc2c(c1F)C(=O)N(C[C@@]1(c3cc4cc5sc(N)nc5cc4o3)NC(=O)NC1=O)C2 [Compound 1743] | 0.14
30 | COc1ccc2c(c1)C(=O)N(C[C@@]1(c3cc4c(Cl)nc(N)nc4o3)NC(=O)NC1=O)C2 [Compound 2296] | 4.59
31 | CCCN1CCC(c2nc3cc([C@]4(CN5Cc6ccc(OC)c(F)c6C5=O)NC(=O)NC4=O)oc3cc2F)CC1 [Compound 1324] | 0.58
32 | Cc1ccc2c(c1)C(=O)N(C[C@@]1(c3cc4ncccc4o3)NC(=O)NC1=O)C2 [Compound 1740] | 2.91

same assay, conditions: TNF-FRET 2 substrate, read-out: Ki

Row | Ki [nM] | Structure (SMILES)
33 | 0.41 | COc1ccc2c(c1)C(=O)N(C[C@@]1(c3cc4cc(C=O)ccc4o3)NC(=O)NC1=O)C2 [Compound 2451]
34 | 0.51 | CCN1CCN(C(=NO)c2ccc3oc([C@]4(CN5Cc6ccc(OC)cc6C5=O)NC(=O)NC4=O)cc3c2)CC1 [Compound 2453]
35 | 0.76 | CCNC(=O)NCc1ccc2oc([C@]3(CN4Cc5ccc(OC)cc5C4=O)NC(=O)NC3=O)cc2c1 [Compound 2485]
36 | 1.42 | COc1ccc2c(c1)C(=O)N(C[C@@]1(c3cc4cc(C(=O)N5CCN(C)CC5)c(C)cc4o3)NC(=O)NC1=O)C2 [Compound 2427]
37 | 0.377 | CSc1ccc2c(c1)C(=O)N(C[C@@]1(c3cc4cnccc4o3)NC(=O)NC1=O)C2 [Compound 309]
38 | 0.779 | COc1ccc2c(c1)C(=O)N(C[C@@]1(c3cc4nc(-c5cncc(C#N)c5)ccc4o3)NC(=O)NC1=O)C2 [Compound 2471]
39 | 2.91 | COc1ccc2c(c1)C(=O)N(C[C@@]1(c3ccc(C(=O)N4CCOCC4)cc3)NC(=O)NC1=O)C2 [Compound 2405]
40 | 0.28 | COc1ccc2c(c1)C(=O)N(C[C@@]1(c3cc4nc(-c5cccc(O)c5)ccc4o3)NC(=O)NC1=O)C2 [Compound 1902]
41 | 0.8 | COc1ccc2c(c1)C(=O)N(C[C@@]1(c3cc4nc(-c5cncc(C#N)c5)ccc4o3)NC(=O)NC1=O)C2 [Compound 1529]
42 | 1.32 | COc1ccc2c(c1)C(=O)N(C[C@@]1(c3cc4nc(C(=O)NC5CCN(C)CC5)ccc4o3)NC(=O)NC1=O)C2 [Compound 1911]
43 | 0.72 | COc1ccc2c(c1)C(=O)N(C[C@@]1(c3cc4c(-c5cccc(C#N)c5)nccc4o3)NC(=O)NC1=O)C2 [Compound 2430]
44 | 0.59 | COc1ccc2c(c1)C(=O)N(C[C@@]1(c3cc4ncc(C(=NO)N5CCN(c6cnccn6)CC5)cc4o3)NC(=O)NC1=O)C2 [Compound 2469]
45 | 0.556 | COc1ccc2c(c1)C(=O)N(C[C@@]1(c3cc4ncc(C(=O)NC5CC5)cc4o3)NC(=O)NC1=O)C2 [Compound 2460]
46 | 149 | COc1cc2c(cc1OC)C(=O)N(C[C@]1(c3cc4cnccc4o3)NC(=O)NC1=O)C2 [Compound 201]
47 | 0.09 | COc1ccc2c(c1F)C(=O)N(C[C@@]1(c3cc4nc(-c5cccnc5)c(F)cc4o3)NC(=O)NC1=O)C2 [Compound 1315]
48 | 0.5 | COc1ccc2c(c1)C(=O)N(C[C@@]1(c3cc4nc(-c5c(C)noc5C)ccc4o3)NC(=O)NC1=O)C2 [Compound 1520]
49 | 2.26 | COc1ccc2c(c1)C(=O)N(C[C@@]1(c3cc4c(C)ncc(C(=O)O)c4o3)NC(=O)NC1=O)C2 [Compound 2446]
50 | 3.96 | COc1ccc2c(c1)C(=O)N(C[C@@]1(c3cc4nc(N(CCO)CCN(C)C)ccc4o3)NC(=O)NC1=O)C2 [Compound 1702]
51 | 0.66 | CCN1CCN(c2ccc3oc(C4(CN5CCc6ccsc6C5=O)NC(=O)NC4=O)cc3n2)CC1 (centres unmarked) [Compound 2496]
52 | 7.23 | COc1cc2c(cc1OC)C(=O)N(C[C@@]1(c3cc4cnccc4o3)NC(=O)NC1=O)C2 [Compound 200]
53 | 1.41 | COc1ccc2c(c1)C(=O)N(C[C@@]1(c3ccc(C#N)cc3)NC(=O)NC1=O)C2 [Compound 2477]
54 | 0.437 | COc1ccc2c(c1)C(=O)N(C[C@@]1(c3cc4cc(C)ncc4o3)NC(=O)NC1=O)C2 [Compound 2302]
55 | 1.32 | CCOC(=O)c1c(O)nc(C)c2cc([C@]3(CN4Cc5ccc(OC)cc5C4=O)NC(=O)NC3=O)oc12 [Compound 2434]
56 | 0.8 | COc1ccc2c(c1)C(=O)N(C[C@@]1(c3cc4cc(/C(=N\O)N5CC[C@H](N(C)C)C5)ccc4o3)NC(=O)NC1=O)C2 [Compound 2488]

Source: patent publication US8569336B2, “Compounds for the treatment of inflammatory disorders” (priority 2008, dated 2013)
